The source of these data is patent US9695155B2, “Herbicidal substituted pyrimidinyloxy benzene compounds” (E. I. DU PONT DE NEMOURS AND COMPANY, priority 2013, dated 2017).

The subject of one assay is morningglory. As to the kind of experiment: Test E preemergence. In kind it is in vivo, Ipomoea coccinea. The following applies: for Morningglory plant response rating: scale 0 to 100 (0 no effect, 100 complete control). The gist of the method: (§1)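 Compound in a non-phytotoxic solvent mixture with surfactant was applied preemergence to seeds in silt loam soil, or postemergence to plants 2 to 18 cm tall grown in peat-based potting medium. Plants were kept in a greenhouse for 14 to 21 days, then rated visually against untreated controls on a 0 (no effect) to 100 (complete control) scale.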

The test system of a further assay is Brazilian crabgrass. As to the kind of experiment: Test E preemergence. In kind it is in vivo, Digitaria horizontalis. To be noted: for Crabgrass, Brazil plant response rating: scale 0 to 100 (0 no effect, 100 complete control). Put shortly:
as §1

For another assay, the system named is ragweed. The experiment in a line: Test E preemergence. In kind it is in vivo, Ambrosia elatior. The following applies: for Ragweed plant response rating: scale 0 to 100 (0 no effect, 100 complete control). The gist of the method:
as §1

The next assay relates to palmer pigweed. As to the kind of experiment: Test E preemergence. The assay is classed as in vivo, Amaranthus palmeri. The following applies: for Pigweed, Palmer plant response rating: scale 0 to 100 (0 no effect, 100 complete control). The gist of the method:
as §1

The test system of another assay is kochia. The experiment in a line: Test E preemergence. The following applies: for Kochia plant response rating: scale 0 to 100 (0 no effect, 100 complete control). The assay is classed as in vivo, Kochia scoparia. The gist of the method:
as §1

Another assay has as its system johnsongrass. The experiment in a line: Test E preemergence. The assay is classed as in vivo, Sorghum halepense. To be noted: for Johnsongrass plant response rating: scale 0 to 100 (0 no effect, 100 complete control). The gist of the method:
as §1

For a further assay, the system named is barnyardgrass. The experiment in a line: Test E postemergence. The assay is classed as in vivo, Echinochloa crus-galli. The source says:
Seeds of plant species selected from corn (Zea mays), soybean (Glycine max), velvetleaf (Abutilon theophrasti), lambsquarters (Chenopodium album), wild poinsettia (Euphorbia heterophylla), palmer pigweed (Amaranthus palmeri), waterhemp (common waterhemp, Amaranthus rudis), surinam grass (Brachiaria decumbens), large (Lg) crabgrass (Digitaria sanguinalis), Brazilian crabgrass (Digitaria horizontalis), fall panicum (Panicum dichotomiflorum), giant foxtail (Setaria faberii), green foxtail (Setaria viridis), goosegrass (Eleusine indica), johnsongrass (Sorghum halepense), ragweed (common ragweed, Ambrosia elatior), barnyardgrass (Echinochloa crus-galli), sandbur (southern sandbur, Cenchrus echinatus), arrowleaf sida (Sida rhombifolia), Italian ryegrass (Lolium multiflorum), dayflower (Virginia (VA) dayflower, Commelina virginica), field bindweed (Convolvulus arvensis), morningglory (Ipomoea coccinea), nightshade (eastern black nightshade, Solanum ptycanthum), kochia (Kochia scoparia), yellow nutsedge (Cyperus esculentus), cocklebur (common cocklebur, Xanthium strumarium), smartweed (ladysthumb smartweed, and hairy beggarticks (Bidens pilosa), were planted into a silt loam soil and treated preemergence with test chemicals formulated in a non-phytotoxic solvent mixture which included a surfactant.
At the same time, plants from these crop and weed species and also horseweed (Canada horseweed, Conyza canadensis), waterhemp_RES1, (ALS & Triazine resistant common waterhemp, Amaranthus rudis), and waterhemp_RES2, (ALS & HPPD resistant common waterhemp, Amaranthus rudis) were planted in pots containing Redi-Earth® planting medium (Scotts Company, 14111 Scottslawn Road, Marysville, Ohio 43041) comprising spaghnum peat moss, vermiculite, wetting agent and starter nutrients were treated with postemergence applications of test chemicals formulated in the same manner. Plants ranged in height from 2 to 18 cm for postemergence treatments (1- to 4-leaf stage). Treated plants and controls were maintained in a greenhouse for 14 to 21 days, after which time all species were compared to controls and visually evaluated. Plant response ratings, summarized in Table E, are based on a scale of 0 to 100 where 0 is no effect and 100 is complete control. A dash (-) response means no test result.

For a further assay, the system named is ducksalad. The experiment in a line: Test C flooded paddy test. The assay is classed as in vivo, Heteranthera limosa. The following applies: Flood, scale 0 to 100 (0 no effect, 100 complete control), 13 to 15 days. Put shortly: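 Test compounds are applied straight into paddy water held 3 cm above the soil surface, with that flood maintained for the whole test. After 13 to 15 days in the greenhouse, each species is scored visually relative to controls.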

Setting [1] is: 8 g ai/ha, scale 0 to 100, 0 is no effect, 100 is complete control.
Where [2] appears, read: 125 g ai/ha, scale 0 to 100, 0 no effect, 100 complete control.
[3] abbreviates: Echinochloa crus-galli, post-emergence, Postemergence, 31 g ai/ha, scale 0 to 100, read-out: Plant response rating, Barnyardgrass.
Setting [4] is: Echinochloa crus-galli, post-emergence, Postemergence, 62 g ai/ha, scale 0 to 100, read-out: Plant response rating, Barnyardgrass.
Setting [5] is: Echinochloa crus-galli, post-emergence, Postemergence, 125 g ai/ha, scale 0 to 100, read-out: Plant response rating, Barnyardgrass.
Where [6] appears, read: Echinochloa crus-galli, post-emergence, postemergence, 16 g ai/ha, scale 0 to 100, 0 no effect, 100 complete control, read-out: Plant response rating, Barnyardgrass.
[7] abbreviates: Echinochloa crus-galli, post-emergence, Postemergence, 250 g ai/ha, scale 0 to 100, read-out: Plant response rating, Barnyardgrass.
Setting [8] is: 250 g ai/ha, scale 0 to 100, 0 no effect, 100 complete control.
[9] abbreviates: Postemergence, 31 g ai/ha, scale 0 to 100.
[10] abbreviates: Postemergence, 62 g ai/ha, scale 0 to 100.
The mark [11] stands for this setting: Postemergence, 125 g ai/ha, scale 0 to 100.
Where [12] appears, read: postemergence, 16 g ai/ha, scale 0 to 100, 0 no effect, 100 complete control.

As for `Clc1cnc(Oc2ccccc2-n2cc(Br)cn2)nc1` [Compound 7, 2-[2-(4-bromo-1H-pyrazol-1-yl)phenoxy]-5-chloropyrimidine], the “Plant response rating, Morningglory” value in the assay on morningglory (setting [1]) and in the assay with morningglory (setting [2]) was 0 throughout. Further, the “Morningglory plant response rating” value in the assay with morningglory (16 g ai/ha), with morningglory (31 g ai/ha) and with morningglory (62 g ai/ha) was 0 throughout. Besides, the entries for the “Plant response rating, Crabgrass, Brazil” value with Brazilian crabgrass (setting [1]) and with Brazilian crabgrass (setting [2]) were 0 and 100, respectively. Further, the “Crabgrass, Brazil plant response rating” value in the assay with Brazilian crabgrass (16 g ai/ha) is given as 0; in the assay with Brazilian crabgrass (31 g ai/ha) it was 80; in the assay with Brazilian crabgrass (62 g ai/ha), 100. In addition, the “Plant response rating, Ragweed” value in the assay with ragweed (setting [1]) and with ragweed (setting [2]) was 0 each time. In addition, the “Ragweed plant response rating” value with ragweed (16 g ai/ha), in the assay with ragweed (31 g ai/ha) and in the assay on ragweed (62 g ai/ha) was 0 in each case. Moreover, the “Plant response rating, Pigweed, Palmer” value with palmer pigweed (setting [1]) was determined as 0; in the assay with palmer pigweed (setting [2]), 100. Also, the “Pigweed, Palmer plant response rating” value with palmer pigweed (16 g ai/ha) came out at 95; in the assay with palmer pigweed (31 g ai/ha), 85; in the assay with palmer pigweed (62 g ai/ha), 100. Moreover, the “Plant response rating, Kochia” value in the assay on kochia (setting [1]) came out at 0; in the assay with kochia (setting [2]), 95. The “Kochia plant response rating” value in the assay on kochia (16 g ai/ha) amounted to 0; with kochia (31 g ai/ha), 0; with kochia (62 g ai/ha) it was 50. Also, the “Plant response rating, Johnsongrass” value came out at 0 in the assay with johnsongrass (setting [1]) and 50 with johnsongrass (setting [2]). Further, the “Johnsongrass plant response rating” value is recorded as 0 in the assay on johnsongrass (16 g ai/ha), 0 in the assay on johnsongrass (31 g ai/ha) and 40 in the assay with johnsongrass (62 g ai/ha). The pest or weed control at 31 g/ha with barnyardgrass (setting [3]) came out at 0%. In the assay on barnyardgrass (setting [4]), the pest or weed control at 62 g/ha is 10%. For the same compound, the pest or weed control at 125 g/ha in the assay on barnyardgrass (setting [5]) came to 10%. Moreover, the pest or weed control at 8 g/ha in the assay on barnyardgrass (Echinochloa crus-galli, post-emergence, postemergence, 8 g ai/ha, scale 0 to 100, 0 no effect, 100 complete control, read-out: Plant response rating, Barnyardgrass) amounted to 0%. Further, in the assay on barnyardgrass (setting [6]), the pest or weed control at 16 g/ha worked out at 0%.

For `Fc1cnc(Oc2ccccc2-n2cc(Br)cn2)nc1` [Compound 10, 2-[2-(4-bromo-1H-pyrazol-1-yl)phenoxy]-5-fluoropyrimidine], the pest or weed control at 31 g/ha in the assay with barnyardgrass (setting [3]) was 0%. Besides, in the assay on barnyardgrass (setting [4]), the pest or weed control at 62 g/ha stood at 0%. The pest or weed control at 125 g/ha with barnyardgrass (setting [5]) turned out to be 0%. Further, the pest or weed control at 250 g/ha with barnyardgrass (setting [7]) was 0%. In the assay with barnyardgrass (setting [6]), the pest or weed control at 16 g/ha amounted to 0%.

Take `FC(F)(F)c1cnn(-c2ccccc2Oc2ncc(Cl)cn2)c1` [Compound 16]: the “Morningglory plant response rating” value with morningglory (16 g ai/ha), in the assay with morningglory (31 g ai/ha) and with morningglory (62 g ai/ha) was 0 each time. Besides, the results for the “Plant response rating, Morningglory” value with morningglory (setting [2]) and in the assay with morningglory (setting [8]) were 25 and 95, respectively. Also, in the assay with Brazilian crabgrass (62 g ai/ha), the “Crabgrass, Brazil plant response rating” value was determined as 100. In addition, the “Plant response rating, Crabgrass, Brazil” value in the assay on Brazilian crabgrass (setting [2]) and with Brazilian crabgrass (setting [8]) was 100 each time. Also, the “Ragweed plant response rating” value with ragweed (16 g ai/ha), with ragweed (31 g ai/ha) and in the assay with ragweed (62 g ai/ha) was 0 each time. The “Plant response rating, Ragweed” value in the assay with ragweed (setting [2]) worked out at 30; in the assay with ragweed (setting [8]), 65. In addition, the “Kochia plant response rating” value in the assay with kochia (16 g ai/ha) is on record as 0; with kochia (31 g ai/ha), 0; in the assay with kochia (62 g ai/ha), 65. Also, the “Plant response rating, Kochia” value in the assay with kochia (setting [2]) and in the assay with kochia (setting [8]) was 100 throughout. The “Johnsongrass plant response rating” value in the assay with johnsongrass (16 g ai/ha), in the assay on johnsongrass (31 g ai/ha) and in the assay with johnsongrass (62 g ai/ha) was 0 throughout. Besides, the “Plant response rating, Johnsongrass” value is 25 in the assay on johnsongrass (setting [2]) and 40 in the assay on johnsongrass (setting [8]). Further, the “Plant response rating, Barnyardgrass” value is given as 0 with barnyardgrass (setting [9]); 0 in the assay on barnyardgrass (setting [10]); 10 in the assay on barnyardgrass (setting [11]); 15 with barnyardgrass (Postemergence, 250 g ai/ha, scale 0 to 100); 0 in the assay on barnyardgrass (setting [12]).

On to `N#Cc1cccc(Oc2ncc(Cl)cn2)c1-n1cc(C(F)(F)F)cn1` [Compound 58, 3-[(5-chloro-2-pyrimidinyl)oxy]-2-[4-(trifluoromethyl)-1H-pyrazol-1-yl]benzonitrile], for which the results for the “Morningglory plant response rating” value with morningglory (31 g ai/ha) and in the assay with morningglory (62 g ai/ha) were 50 and 100, respectively. Besides, the “Plant response rating, Morningglory” value with morningglory (setting [2]) and in the assay with morningglory (setting [8]) was 100 in each case. The “Crabgrass, Brazil plant response rating” value with Brazilian crabgrass (16 g ai/ha), in the assay on Brazilian crabgrass (31 g ai/ha) and in the assay with Brazilian crabgrass (62 g ai/ha) was 100 each time. In addition, the “Plant response rating, Crabgrass, Brazil” value in the assay on Brazilian crabgrass (setting [2]) and in the assay with Brazilian crabgrass (setting [8]) was 100 in each case. Also, the “Ragweed plant response rating” value was 0 in the assay with ragweed (16 g ai/ha), 0 with ragweed (31 g ai/ha) and 5 with ragweed (62 g ai/ha). The “Plant response rating, Ragweed” value in the assay on ragweed (setting [2]) worked out at 50; with ragweed (setting [8]), 85. Further, the “Pigweed, Palmer plant response rating” value in the assay with palmer pigweed (16 g ai/ha), in the assay with palmer pigweed (31 g ai/ha) and in the assay with palmer pigweed (62 g ai/ha) was 100 in each case. In addition, the “Plant response rating, Pigweed, Palmer” value in the assay with palmer pigweed (setting [2]) and with palmer pigweed (setting [8]) was 100 throughout. Further, the results for the “Kochia plant response rating” value in the assay with kochia (16 g ai/ha), in the assay with kochia (31 g ai/ha) and in the assay with kochia (62 g ai/ha) were 35, 100 and 100, respectively. The “Plant response rating, Kochia” value with kochia (setting [2]) and in the assay with kochia (setting [8]) was 100 in each case. The “Johnsongrass plant response rating” value in the assay on johnsongrass (31 g ai/ha) was 35; in the assay with johnsongrass (62 g ai/ha) it was 95. The results for the “Plant response rating, Johnsongrass” value in the assay with johnsongrass (setting [2]) and with johnsongrass (setting [8]) were 95 and 100, respectively. Also, the pest or weed control at 31 g/ha in the assay with barnyardgrass (setting [3]) was found to be 5%. Moreover, the pest or weed control at 62 g/ha in the assay on barnyardgrass (setting [4]) amounted to 20%. Further, the pest or weed control at 125 g/ha in the assay on barnyardgrass (setting [5]) stood at 30%. For the same compound, the pest or weed control at 250 g/ha with barnyardgrass (setting [7]) turned out to be 70%. Besides, the pest or weed control at 16 g/ha in the assay with barnyardgrass (setting [6]) was determined as 0%.

For the compound `Clc1cnc(Oc2cccc(Br)c2-n2cc(Br)cn2)nc1` [Compound 65], the “Plant response rating, Ducksalad” value amounted to 0 in the assay on ducksalad (31 g ai/ha), 30 in the assay on ducksalad (62 g ai/ha), 85 in the assay with ducksalad (125 g ai/ha) and 85 in the assay on ducksalad (250 g ai/ha). Moreover, the “Plant response rating, Barnyardgrass” value with barnyardgrass (setting [9]) is 0; in the assay on barnyardgrass (setting [10]), 0; with barnyardgrass (setting [11]), 0; in the assay on barnyardgrass (postemergence, 8 g ai/ha, scale 0 to 100, 0 no effect, 100 complete control), 0; in the assay with barnyardgrass (setting [12]), 0.
